Test results from patent US9546195B2, “Hydrophobic ceragenin compounds and devices incorporating same” (BRIGHAM YOUNG UNIVERSITY, priority 2011, dated 2017).

Tests used:
[1] = Elution of radiolabeled CSA-138 from hydrogel contact lenses, scintillation counting; assay type: physicochemical
Method: To decrease the detection limit for CSA-138, we prepared a radiolabeled version of CSA-138 (CSA-138T2), incorporated it into contact lenses, and quantified its elution from lenses using scintillation counting.
Lenses containing 1% CSA-138 were stored in 0.5 mL phosphate buffered saline (PBS) prior to testing. One set of lenses was autoclaved for 45 min before elution studies were performed. For elution studies, lenses were suspended in 2 ml aliquots of PBS, 10% TSB growth medium, 10% TSB growth medium containing 10^6 CFU of Staphylococcus aureus, or 10% TSB growth medium containing 10^6 CFU of Pseudomonas aeruginosa. Corresponding aliquots were exchanged every 24 h, including bacterial inocula. Samples were removed every 24 h and analyzed for the presence of CSA-138 using scintillation counting. A standard curve was generated to correlate counts per minute to concentration of CSA-138. All experiments were performed in triplicate.

[2] = Elution of CSA-138 from hydrogel contact lenses, LC/MS with mass-labeled internal standard; assay type: physicochemical; details: lenses with CSA-138 incorporated at 1%; LC/MS detection limit about 2 μg/ml
Method: To better understand the mechanism by which hydrophobic ceragenin compounds can prevent bacterial colonization, the bonding between CSA-138 and a hydrogel used in contact lenses was evaluated. In a first example, we determined the rate at which CSA-138 elutes from a hydrogel suitable for use in contact lenses. To quantify the amount of ceragenin eluting from the hydrogel, we used LC/MS using a mass-labeled internal standard. However, this method only gave detection limits of about 2 μg/ml, and we were able to effectively kill bacteria at constant elution rates below the detection limit.

S. aureus [3] = details: elution from lenses, inocula 10^6 CFU S. aureus; cited from earlier work
S. aureus [4] = experiment: MIC of CSA-138 for S. aureus; assay type: cell-based; details: Staphylococcus aureus
P. aeruginosa [5] = details: elution from lenses, inocula 10^6 CFU P. aeruginosa; cited from earlier work
P. aeruginosa [6] = experiment: MIC of CSA-138 for P. aeruginosa; assay type: cell-based; details: Pseudomonas aeruginosa
microbes = experiment: Ability to elute from polymer and kill microbes; details: compared with other ceragenins

SMILES	elution in the presence of bacteria ([1]; 10% TSB with 10^6 CFU S. aureus (nine days) or P. aeruginosa (eight days), FIGS. 6 and 7)	elution on the first day ([1]; lenses containing 1% CSA-138, suspended in 2 ml PBS, first day (FIG. 3))	time until elution of CSA-138 drops below 1 μg/ml ([1]; trend of FIG. 5 extended)	time until elution fell below detection limits [2]	prevents colonization, consecutive days (S. aureus [3]) [days]	MIC (S. aureus [4]) [µg/mL]	prevents colonization (P. aeruginosa [5]) [days]	MIC (P. aeruginosa [6]) [µg/mL]	ability to elute and kill microbes (microbes)
CCCCCCCCCCCCCNCCC[C@@H](C)[C@H]1CC[C@H]2[C@@H]3[C@H](OCCCN)C[C@@H]4C[C@H](OCCCN)CC[C@]4(C)[C@H]3C[C@H](OCCCN)[C@]12C [CSA-138]	fluctuated substantially	about 2.2 μg/ml	about 40 days	within five days	30	0.5	19	1	
CCCCCCCCCCNCCC[C@@H](C)[C@H]1CC[C@H]2[C@@H]3[C@H](OCCCN)C[C@@H]4C[C@H](OCCCN)CC[C@]4(C)[C@H]3C[C@H](OCCCN)[C@]12C [CSA-136]									advantageous over CSA-135
